The nature of series [1]: Solubility tests of active agent in solvent systems. In kind it is physicochemical. Conditions: for solubility: thermodynamic from solid; for Solubility in the compositions of Table 5 (in words): 3% surfactant, 25% co-solvent and pH adjuster (pH 3.1); for Solubilized miconazole / ketoconazole / itraconazole ± S.D.: Table 5: 1.5% sodium taurocholeate + 1.5% polysorbate 80 + 15% ethanol + 10% propylene glycol + ammonium acetate pH 3.1. The method, then: General example for the solubility tests
Each of the solutions applied in the solubilization tests were prepared as follows (the specific amount of the components comes from the Tables below):
1. 0.05M ammonium acetate (as pH-adjuster) solution was prepared in a volumetric flask and the pH of this solution was set to pH 3.1 with glacial acetic acid.
2. The specific amount of co-solvent was measured into a beaker and the specific amount of the previously prepared 0.05M ammonium acetate solution was added. The pH of this solution was measured and set to pH 3.1 with glacial acetic acid.
3. The specific amount of surfactant was added to the solution.
4. This solvent system was vigorously shaken until complete homogenization of the solution was achieved.
5. Aliquot amount of this solvent system was measured and the specific amount of the active agent was added to the solution.
The Tables below define the composition of each solution tested and the amount of the active agent which could be solubilized by the applied solvent system.
The amount of the co-solvent is given in % by volume and the amount of the surfactant is given in % by weight in each table.

Series [2] can be described thus: Stability on dilution with infusions. In kind it is physicochemical. The following applies: for Concentration of polysorbate 80 necessary to keep miconazole in solution on dilution: co-solvent 20% ethanol + ammonium acetate, pH 3.1, dilution to 200 ml with 5% dextrose or 0.9% sodium chloride infusions. The method, then:
A composition called as “concentrate for infusion” should be diluted before administration to patients by a previously determined amount of usual infusion. The usual infusion is chosen preferably from the group of 5% dextrose infusion and 0.9% sodium chloride infusion. It is well known for a skilled person in the art that such a dilute should be stable for at least 48 hours. To reproduce the dilution scheme applied in the case of Monistat® (previously marketed as a concentrate for infusion containing miconazole), one of the compositions of the present invention was diluted with 5% dextrose infusion and 0.9% sodium chloride infusion. Based on the previous results a composition comprising of 0.1% polysorbate 80, 20% ethanol and ammonium acetate pH 3.1 was chosen for further investigation. […]

The conditions of series [3]: data from U.S. Pat. No. 6,383,471, cited from earlier work.
The mark [4] stands for this setting: 3% polysorbate 80 + 25% ethanol + ammonium acetate pH 3.1, pH 3.1, aqueous with cosolvent or surfactant or cyclodextrin, Table 5: 3% polysorbate 80 + 25% ethanol + ammonium acetate pH 3.1, read-out: Solubilized miconazole / ketoconazole / itraconazole ± S.D.
[5] abbreviates: aqueous with cosolvent or surfactant or cyclodextrin, Table 5: 1.5% sodium taurocholeate + 1.5% polysorbate 80 + 15% ethanol + 10% PEG 400 + ammonium acetate pH 3.1, read-out: Solubilized miconazole / ketoconazole / itraconazole ± S.D.
Where [6] appears, read: pH 3.1, aqueous with cosolvent or surfactant or cyclodextrin, Table 5: 1.5% sodium taurocholeate + 1.5% polysorbate 80 + 25% ethanol + ammonium acetate pH 3.1, read-out: Solubilized miconazole / ketoconazole / itraconazole ± S.D.
[7] abbreviates: pH 3.1, aqueous with cosolvent or surfactant or cyclodextrin, Table 5: 3% polysorbate 80 + 15% ethanol + 10% PEG 400 + ammonium acetate pH 3.1, read-out: Solubilized miconazole / ketoconazole / itraconazole ± S.D.
The mark [8] stands for this setting: pH 3.1, aqueous with cosolvent or surfactant or cyclodextrin, Table 5: 3% polysorbate 80 + 15% ethanol + 10% propylene glycol + ammonium acetate pH 3.1, read-out: Solubilized miconazole / ketoconazole / itraconazole ± S.D.

Molecules are shown by their SMILES. ≈ marks a conversion by molar mass, not a printed value. Read-outs that look alike come from different tables or passages of the source.

In the case of `Clc1ccc(COC(Cn2ccnc2)c2ccc(Cl)cc2Cl)c(Cl)c1` (centres unmarked) [miconazole], the solubility worked out at 2.24 ± 0.36 mg/mL (≈ 5380 µM) in series [1] (0.05 M ammonium acetate in water, pH 3.1, aqueous buffer, 0.05 M ammonium acetate pH 3.1 in water, read-out: Solubilized miconazole ± S.D.); 0.65 ± 0.06 mg/mL (≈ 1560 µM) in series [1] (0.05 M calcium gluconate in water, pH 3.1, aqueous buffer, 0.05 M calcium gluconate pH 3.1 in water, read-out: Solubilized miconazole ± S.D.); 0.77 ± 0.05 mg/mL (≈ 1850 µM) in series [1] (0.05 M potassium dihydrogen phosphate in water, pH 3.1, aqueous buffer, 0.05 M potassium dihydrogen phosphate pH 3.1 in water, read-out: Solubilized miconazole ± S.D.); 2.39 ± 0.12 mg/mL in series [1] (0.10% polysorbate 80 + 5% ethanol + ammonium acetate pH 3.1, pH 3.1, aqueous with cosolvent or surfactant or cyclodextrin, Table 3: 0.10% polysorbate 80 + 5% ethanol + ammonium acetate pH 3.1, read-out: Solubilized miconazole ± S.D.); 4.52 ± 0.03 mg/mL in series [1] (0.1% polysorbate 80 + 10% ethanol + ammonium acetate pH 3.1, pH 3.1, aqueous with cosolvent or surfactant or cyclodextrin, Table 3: 0.1% polysorbate 80 + 10% ethanol + ammonium acetate pH 3.1, read-out: Solubilized miconazole ± S.D.); 10.8 ± 2.84 mg/mL in series [1] (0.1% polysorbate 80 + 15% ethanol + ammonium acetate pH 3.1, pH 3.1, aqueous with cosolvent or surfactant or cyclodextrin, Table 3: 0.1% polysorbate 80 + 15% ethanol + ammonium acetate pH 3.1, read-out: Solubilized miconazole ± S.D.). Also, the solubility was found to be 35.1 ± 5.76 mg/mL in series [1] (0.1% polysorbate 80 + 20% ethanol + ammonium acetate pH 3.1, pH 3.1, aqueous with cosolvent or surfactant or cyclodextrin, Table 3: 0.1% polysorbate 80 + 20% ethanol + ammonium acetate pH 3.1, read-out: Solubilized miconazole ± S.D.); 36 ± 2.09 mg/mL in series [1] (0.10% polysorbate 80 + 25% ethanol + ammonium acetate pH 3.1, pH 3.1, aqueous with cosolvent or surfactant or cyclodextrin, Table 2: 0.10% polysorbate 80 + 25% ethanol + ammonium acetate pH 3.1, read-out: Solubilized miconazole ± S.D.); 36 ± 1.49 mg/mL in series [1] (0.1% polysorbate 80 + 25% ethanol + ammonium acetate pH 3.1, pH 3.1, aqueous with cosolvent or surfactant or cyclodextrin, Table 3: 0.1% polysorbate 80 + 25% ethanol + ammonium acetate pH 3.1, read-out: Solubilized miconazole ± S.D.); 34.4 ± 1.51 mg/mL in series [1] (0.25% polysorbate 80 + 25% ethanol + ammonium acetate pH 3.1, pH 3.1, aqueous with cosolvent or surfactant or cyclodextrin, Table 2: 0.25% polysorbate 80 + 25% ethanol + ammonium acetate pH 3.1, read-out: Solubilized miconazole ± S.D.); 44.72 ± 0.14 mg/mL in series [1] (0.50% polysorbate 80 + 25% ethanol + ammonium acetate pH 3.1, pH 3.1, aqueous with cosolvent or surfactant or cyclodextrin, Table 2: 0.50% polysorbate 80 + 25% ethanol + ammonium acetate pH 3.1, read-out: Solubilized miconazole ± S.D.); 42.6 ± 2.04 mg/mL in series [1] (1.0% polysorbate 80 + 25% ethanol + ammonium acetate pH 3.1, pH 3.1, aqueous with cosolvent or surfactant or cyclodextrin, Table 2: 1.0% polysorbate 80 + 25% ethanol + ammonium acetate pH 3.1, read-out: Solubilized miconazole ± S.D.). For the same molecule, the solubility in series [1] (2.0% polysorbate 80 + 25% ethanol + ammonium acetate pH 3.1, pH 3.1, aqueous with cosolvent or surfactant or cyclodextrin, Table 2: 2.0% polysorbate 80 + 25% ethanol + ammonium acetate pH 3.1, read-out: Solubilized miconazole ± S.D.) amounted to 37.9 ± 1.86 mg/mL; in series [1] (3% polysorbate 20 in water, aqueous with cosolvent or surfactant or cyclodextrin, 3% polysorbate 20 in water, read-out: Solubilized miconazole ± S.D.) it was 0.81 ± 0.07 mg/mL (≈ 1950 µM); in series [1] (3% polysorbate 60 in water, aqueous with cosolvent or surfactant or cyclodextrin, 3% polysorbate 60 in water, read-out: Solubilized miconazole ± S.D.), 1.42 ± 0.1 mg/mL (≈ 3410 µM); in series [1] (3.0% polysorbate 80 + 25% ethanol + ammonium acetate pH 3.1, pH 3.1, aqueous with cosolvent or surfactant or cyclodextrin, Table 2: 3.0% polysorbate 80 + 25% ethanol + ammonium acetate pH 3.1, read-out: Solubilized miconazole ± S.D.) it was 38.9 ± 0.61 mg/mL; in series [1] (setting [4]) it was 34.1 ± 2.95 mg/mL; in series [1] (3% polysorbate 80 in water, aqueous with cosolvent or surfactant or cyclodextrin, 3% polysorbate 80 in water, read-out: Solubilized miconazole ± S.D.), 1.52 ± 0.09 mg/mL (≈ 3650 µM). Besides, the solubility in series [1] (4.0% polysorbate 80 + 25% ethanol + ammonium acetate pH 3.1, pH 3.1, aqueous with cosolvent or surfactant or cyclodextrin, Table 2: 4.0% polysorbate 80 + 25% ethanol + ammonium acetate pH 3.1, read-out: Solubilized miconazole ± S.D.) was determined as 43.3 ± 2.61 mg/mL; in series [1] (5.0% polysorbate 80 + 25% ethanol + ammonium acetate pH 3.1, pH 3.1, aqueous with cosolvent or surfactant or cyclodextrin, Table 2: 5.0% polysorbate 80 + 25% ethanol + ammonium acetate pH 3.1, read-out: Solubilized miconazole ± S.D.) it was 42.7 ± 0.81 mg/mL; in series [1] (25% ethanol in water, aqueous with cosolvent or surfactant or cyclodextrin, 25% ethanol in water, read-out: Solubilized miconazole ± S.D.), 0.021 ± 0.01 mg/mL (≈ 50.5 µM); in series [1] (30% glycerol in water, aqueous with cosolvent or surfactant or cyclodextrin, 30% glycerol in water, read-out: Solubilized miconazole ± S.D.), 0.024 ± 0.006 mg/mL (≈ 57.7 µM); in series [1] (30% macrogol 400 in water, aqueous with cosolvent or surfactant or cyclodextrin, 30% macrogol 400 in water, read-out: Solubilized miconazole ± S.D.) it was 0.022 ± 0.008 mg/mL (≈ 52.9 µM); in series [1] (60% propylene glycol in water, aqueous with cosolvent or surfactant or cyclodextrin, 60% propylene glycol in water, read-out: Solubilized miconazole ± S.D.), 0.36 ± 0.12 mg/mL (≈ 865 µM). Further, the solubility in series [1] (setting [5]) was 34.8 ± 2.36 mg/mL; in series [1] (setting [6]), 32.1 ± 2.86 mg/mL; in series [1] (setting [7]) it was 22 ± 1.62 mg/mL; in series [1] (setting [8]), 10.7 ± 0.69 mg/mL. The “Solubility in the compositions of Table 5 (in words)” value (from here on “Solubility in the compositions”) in series [1] was “remarkable solubility”. Besides, the “Solubilized miconazole / ketoconazole / itraconazole ± S.D.” value in series [1] was determined as 38.38 ± 1.53 mg/mL. In addition, the “Concentration of polysorbate 80 necessary to keep miconazole in solution on dilution” value in series [2] (10 mg/ml miconazole in composition) was 0.1%^; in series [2] (20 mg/ml miconazole in composition), 3%; in series [2] (30 mg/ml miconazole in composition), 3%. Moreover, the “Stability of diluted composition” value in series [2] (10 ml of 0.1% polysorbate 80, 20% ethanol, ammonium acetate pH 3.1 containing 20 mg/ml miconazole, diluted to 200 ml with 5% dextrose or 0.9% sodium chloride infusion) is on record as “not stable for 48 hours”.
As to `CCC(C)n1ncn(-c2ccc(N3CCN(c4ccc(OCC5COC(Cn6cncn6)(c6ccc(Cl)cc6Cl)O5)cc4)CC3)cc2)c1=O` (centres unmarked) [itraconazole], the solubility was 0.057 ± 0.005 mg/mL in series [1] (setting [4]); 0.04 ± 0.001 mg/mL in series [1] (setting [5]); 0.04 ± 0.008 mg/mL in series [1] (setting [6]); 0.054 ± 0.002 mg/mL in series [1] (setting [7]); 0.04 ± 0.001 mg/mL in series [1] (setting [8]). Besides, in series [1], the “Solubility in the compositions” value is reported as “no substantial solubility”. Besides, the “Solubilized miconazole / ketoconazole / itraconazole ± S.D.” value in series [1] worked out at 0.026 ± 0.001 mg/mL. The Solubilized itraconazole in series [3] (solvent system of Example 27) was 85 mg/mL; in series [3] (solvent system of Example 28), 50 mg/mL; in series [3] (solvent system of Example 29) it was 50 mg/mL; in series [3] (solvent system of Example 30), 30 mg/mL; in series [3] (solvent system of Example 31), 30 mg/mL.
As for `CC(=O)N1CCN(c2ccc(OCC3COC(Cn4ccnc4)(c4ccc(Cl)cc4Cl)O3)cc2)CC1` (centres unmarked) [ketoconazole], the solubility in series [1] (setting [4]) turned out to be 139 ± 4.05 mg/mL; in series [1] (setting [5]), 142 ± 2.85 mg/mL; in series [1] (setting [6]) it was 137 ± 8.15 mg/mL; in series [1] (setting [7]) it was 140 ± 3.99 mg/mL; in series [1] (setting [8]) it was 124.7 ± 1.16 mg/mL. In addition, the “Solubility in the compositions” value in series [1] was “best solubility”. In addition, the “Solubilized miconazole / ketoconazole / itraconazole ± S.D.” value in series [1] was 126.54 ± 1.04 mg/mL.

Source of the values: US20090253712A1, “AQUEOUS SOLVENT SYSTEM FOR SOLUBILIZATION OF AZOLE COMPOUNDS” (SEMMELWEIS EGYETEM, priority 2008, published 2009).
